# Assay: Stability of the amphetacarbamate moiety in solution
# Assay type: physicochemical
# Excerpt: As noted above, the existence or identity of amphetamine carbamate or amphetacarbamate per se were not known. Rather, amphetamine carbamate was identified and characterized by analyzing crystals isolated from drug-containing polymer matrices of transdermal amphetamine compositions, and amphetacarbamate was identified the work done to identify and characterize amphetamine carbamate. In addition to the inventions described herein pertaining to transdermal amphetamine compositions and amphetamine transdermal delivery systems, methods for detecting and quantifying amphetamine carbamate had to be developed. […] Thus, for example, typical HPLC assays could not be used.
substance,measurement,value
(S)-1-phenylpropan-2-ammonium-(S)-(1-phenylpropan-2-yl)carbamate [amphetamine carbamate],stability of amphetacarbamate moiety,labile and readily converts to amphetamine

# Source: US12427122B2, “Method of making transdermal amphetamine composition with low levels of carbamate” (Noven Pharmaceuticals, Inc., priority 2021, dated 2025)
